What was measured:
Assay in all cases: cells
Parameters in all cases: species or system panel of human cancer cell lines; Eurofins OncoPanel proliferation; nuclei count by high-content fluorescence imaging, 10-point dose response
SW-13 = settings: Homo sapiens, SW13, 72 h, cell count, 3 days
Method: (§1) OncoPanel cancer cell proliferation assay was performed by Eurofins Panlabs, Inc. (Missouri, USA). Cancer cells were grown in RPMI 1640, 10% FBS, 2 mM L-alanyl-L-glutamine, 1 mM Na pyruvate, or a special medium. Cells were seeded into 384-well plates and incubated in a humidified atmosphere of 5% CO2 at 37°C. Compounds were added the day following cell seeding. At the same time, a time zero untreated cell plate was generated. After a 3-day incubation period, cells were fixed and stained to allow fluorescence imaging of nuclei. Levosimendan was serially diluted in half-log steps from 100 μM and assayed over 10 concentrations with a maximum assay concentration of 0.1% DMSO. Automated fluorescence microscopy was carried out using a Molecular Devices ImageXpress Micro XL high-content imager, and images were collected with a 4X objective. 16-bit TIFF images were acquired and analyzed with MetaXpress 5.1.0.41 software. Cell count EC50 is the test concentration at the curve inflection point (parameter C), or half the effective response. IC50 is the test compound concentration at 50% of the maximum possible response. GI50 is the concentration needed to reduce the observed growth by half (midway between the relative cell count at the curve maximum and at the time of compound addition). Activity area is an estimate of the integrated area above the response curve. Activity area values range from 0–10, where a value of zero indicates no inhibition of proliferation at all concentrations, and a value of 10 indicates complete inhibition of proliferation at all concentrations.

J-RT3-T3-5 = settings: Homo sapiens, J-RT3-T3-5, 72 h, cell count, 3 days
Method: as §1

Hs 683 = settings: Homo sapiens, Hs 683, 72 h, cell count, 3 days
Method: as §1

HPAF-II = settings: Homo sapiens, HPAF-II, 72 h, cell count, 3 days
Method: as §1

HLE = settings: Homo sapiens, HLE, 72 h, cell count, 3 days
Method: as §1

Capan-2 = settings: Homo sapiens, Capan-2, 72 h, cell count, 3 days
Method: as §1

PANC-1 = settings: Homo sapiens, PANC-1, 72 h, cell count, 3 days
Method: as §1

Daudi = settings: Homo sapiens, Daudi, 72 h, cell count, 3 days
Method: as §1

Hs 936.T(C1) = settings: 72 h, cell count, 3 days
Method: as §1

Jurkat = settings: Homo sapiens, Jurkat, 72 h, cell count, 3 days
Method: as §1

Y79 = settings: Homo sapiens, Y79, 72 h, cell count, 3 days
Method: as §1

G-401 = settings: Homo sapiens, G-401, 72 h, cell count, 3 days
Method: as §1

RPMI 8226 = settings: Homo sapiens, RPMI-8226, 72 h, cell count, 3 days
Method: as §1

BC-1 = settings: Homo sapiens, BC1, 72 h, cell count, 3 days
Method: as §1

[1] = 50% of maximum possible response

C[C@@H]1CC(=O)NN=C1c1ccc(NN=C(C#N)C#N)cc1 [levosimendan]
IC50 (SW-13; [1]): 6.13 µM
GI50 (SW-13; corrected for time zero): 3.72 µM
EC50 (SW-13; curve inflection point): 6.13 µM
IC50 (J-RT3-T3-5; [1]): 24.4 µM
GI50 (J-RT3-T3-5; corrected for time zero): 18.4 µM
EC50 (J-RT3-T3-5; curve inflection point): 24.4 µM
IC50 (Hs 683; [1]): > 100 µM
GI50 (Hs 683; corrected for time zero): > 100 µM
EC50 (Hs 683; curve inflection point): 51.2 µM
IC50 (HPAF-II; [1]): 65.8 µM
GI50 (HPAF-II; corrected for time zero): 54 µM
EC50 (HPAF-II; curve inflection point): 65.8 µM
IC50 (HLE; [1]): 26.5 µM
GI50 (HLE; corrected for time zero): 24.3 µM
EC50 (HLE; curve inflection point): 25.2 µM
IC50 (Capan-2; [1]): 49.7 µM
GI50 (Capan-2; corrected for time zero): 42.3 µM
EC50 (Capan-2; curve inflection point): 49.7 µM
IC50 (PANC-1; [1]): 80.9 µM
GI50 (PANC-1; corrected for time zero): 47 µM
EC50 (PANC-1; curve inflection point): 80.9 µM
IC50 (Daudi; [1]): 16.3 µM
GI50 (Daudi; corrected for time zero): 14.2 µM
EC50 (Daudi; curve inflection point): 15.3 µM
IC50 (Hs 936.T(C1); [1]): > 100 µM
GI50 (Hs 936.T(C1); corrected for time zero): > 100 µM
EC50 (Hs 936.T(C1); curve inflection point): > 100 µM
IC50 (Jurkat; [1]): 22.1 µM
GI50 (Jurkat; corrected for time zero): 18.2 µM
EC50 (Jurkat; curve inflection point): 22.1 µM
IC50 (Y79; [1]): 36.2 µM
GI50 (Y79; corrected for time zero): 16 µM
EC50 (Y79; curve inflection point): 32.8 µM
IC50 (G-401; [1]): 5.47 µM
GI50 (G-401; corrected for time zero): 4.83 µM
EC50 (G-401; curve inflection point): 5.34 µM
IC50 (RPMI 8226; [1]): 25.1 µM
GI50 (RPMI 8226; corrected for time zero): 17.1 µM
EC50 (RPMI 8226; curve inflection point): 25.1 µM
IC50 (BC-1; [1]): 18.9 µM
GI50 (BC-1; corrected for time zero): 14.6 µM
EC50 (BC-1; curve inflection point): 18.9 µM
